In patent US20250171437A1 (Agios Pharmaceuticals,Inc., priority 2022, published 2025):

These compounds were tested against T1, human PAH with the R408W mutation (A375 R408W cells) (Homo sapiens, UniProt P00439, R408W) (assay: Cell Based Phenylalanine Flux Assay). Conditions: A375 R408W cells; 24 hrs with compound, then 20 μM sepiapterin and 800 μM 13C9,15N-Phenylalanine for 4 hours; 13C-Tyrosine by LC-MS; average where tested multiple times.
T1 construct: expressed in transfected cells
T1 sequence (P00439 1-452 R408W): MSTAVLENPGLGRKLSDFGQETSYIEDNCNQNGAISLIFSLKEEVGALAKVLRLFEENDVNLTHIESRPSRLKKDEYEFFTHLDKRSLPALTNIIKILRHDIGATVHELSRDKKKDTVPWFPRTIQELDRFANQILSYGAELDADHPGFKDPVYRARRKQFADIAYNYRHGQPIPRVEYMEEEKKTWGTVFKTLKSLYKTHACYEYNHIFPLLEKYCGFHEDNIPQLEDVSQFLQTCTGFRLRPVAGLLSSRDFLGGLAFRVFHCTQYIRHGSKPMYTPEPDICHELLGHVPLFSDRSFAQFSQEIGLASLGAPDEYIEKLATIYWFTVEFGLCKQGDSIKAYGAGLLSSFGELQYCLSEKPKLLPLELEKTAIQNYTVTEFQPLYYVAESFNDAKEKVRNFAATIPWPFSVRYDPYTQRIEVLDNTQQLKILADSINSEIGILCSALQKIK
In short: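 A375 cells stably expressing lentiviral human PAH R408W were treated with compounds (10-point 2-fold dilutions, 0.5% DMSO, duplicate) for 24 h at 37 °C. Then 20 μM sepiapterin and 800 μM 13C9,15N-Phe were added for 4 h; media 13C-Tyr was measured by LC-MS to give AC50.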

SMILES	AC50
Cc1cccc2nc([C@H]3c4nc[nH]c4CCN3C(=O)c3nnc(-c4ccccn4)o3)oc12 [Example 568, (R)-(4-(7-methylbenzo[d]oxazol-2-yl)-6,7-dihydro-1H-imidazo[4,5-c]pyridin-5(4H)-yl)(5-(pyridin-2-yl)-1,3,4-oxadiazol-2-yl)methanone]	1000 to 5000 nM
COc1cccc2oc([C@@H]3c4nc[nH]c4CCN3C(=O)c3ncnn3C)nc12 [Example 903, (S)-(4-(4-methoxybenzo[d]oxazol-2-yl)-6,7-dihydro-1H-imidazo[4,5-c]pyridin-5(4H)-yl)(1-methyl-1H-1,2,4-triazol-5-yl)methanone]	1000 to 5000 nM
CC(C)(O)c1nc(Cl)c(C(=O)N2CCc3[nH]cnc3[C@@H]2c2nc3ccc(F)cc3o2)o1 [Example 270, (R)-(4-chloro-2-(2-hydroxypropan-2-yl)oxazol-5-yl)(4-(6-fluorobenzo[d]oxazol-2-yl)-6,7-dihydro-1H-imidazo[4,5-c]pyridin-5(4H)-yl)methanone]	≥ 5000 nM
Cc1cccc2oc([C@H]3c4nc[nH]c4CCN3C(=O)c3oc(C(C)(C)O)nc3C(F)F)nc12 [Example 362, (R)-(4-(difluoromethyl)-2-(2-hydroxypropan-2-yl)oxazol-5-yl)(4-(4-methylbenzo[d]oxazol-2-yl)-6,7-dihydro-1H-imidazo[4,5-c]pyridin-5(4H)-yl)methanone]	1000 to 5000 nM
O=C(c1nnc(-c2cnn(C(F)F)c2)o1)N1CCc2[nH]cnc2[C@H]1c1nc2c(F)ccc(F)c2o1 [Example 801, (S)-(4-(4,7-difluorobenzo[d]oxazol-2-yl)-6,7-dihydro-1H-imidazo[4,5-c]pyridin-5(4H)-yl)(5-(1-(difluoromethyl)-1H-pyrazol-4-yl)-1,3,4-oxadiazol-2-yl)methanone]	≤ 500 nM
Cn1cc(-c2ccc3c(C(=O)N4CCc5[nH]cnc5[C@H]4c4nc5cc(F)ccc5o4)cnn3c2)cn1 [Example 71, (S)-(4-(5-fluorobenzo[d]oxazol-2-yl)-6,7-dihydro-1H-imidazo[4,5-c]pyridin-5(4H)-yl)(6-(1-methyl-1H-pyrazol-4-yl)pyrazolo[1,5-a]pyridin-3-yl)methanone]	500 to 1000 nM
O=C(c1nnc(-c2ccccn2)o1)N1CCc2[nH]cnc2[C@H]1c1nc2c(F)cc(F)cc2o1 [Example 523, (S)-(4-(4,6-difluorobenzo[d]oxazol-2-yl)-6,7-dihydro-1H-imidazo[4,5-c]pyridin-5(4H)-yl)(5-(pyridin-2-yl)-1,3,4-oxadiazol-2-yl)methanone]	500 to 1000 nM
Cc1ccc2oc([C@H]3c4nc[nH]c4CCN3C(=O)c3nnc(-c4cn[nH]c4)o3)nc2c1 [Example 492, (R)-(5-(1H-pyrazol-4-yl)-1,3,4-oxadiazol-2-yl)(4-(5-methylbenzo[d]oxazol-2-yl)-6,7-dihydro-1H-imidazo[4,5-c]pyridin-5(4H)-yl)methanone]	1000 to 5000 nM
CC(C)(O)c1nc(C(F)F)c(C(=O)N2CCc3[nH]cnc3[C@@H]2c2nc3cc(Br)ccc3o2)o1 [Example 416, [(4R)-4-(5-bromo-1,3-benzoxazol-2-yl)-1,4,6,7-tetrahydroimidazo[4,5-c]pyridin-5-yl]-[4-(difluoromethyl)-2-(1-hydroxy-1-methyl-ethyl)oxazol-5-yl]methanone]	500 to 1000 nM
CC(C)n1ncnc1C(=O)N1CCc2[nH]cnc2[C@@H]1c1nc2cccc(F)c2o1 [Example 708, (R)-(4-(7-fluorobenzo[d]oxazol-2-yl)-6,7-dihydro-1H-imidazo[4,5-c]pyridin-5(4H)-yl)(1-isopropyl-1H-1,2,4-triazol-5-yl)methanone]	500 to 1000 nM
O=C(c1oc(-c2ccccn2)nc1C(F)(F)F)N1CCc2[nH]cnc2[C@H]1c1nc2cc(F)ccc2o1 [Example 49, (S)-(4-(5-fluorobenzo[d]oxazol-2-yl)-6,7-dihydro-1H-imidazo[4,5-c]pyridin-5(4H)-yl)(2-(pyridin-2-yl)-4-(trifluoromethyl)oxazol-5-yl)methanone]	≤ 500 nM
O=C(c1nnc(-c2ccc(F)cc2)o1)N1CCc2[nH]cnc2[C@H]1c1nc2cc(F)ccc2o1 [Example 27, (S)-(4-(5-fluorobenzo[d]oxazol-2-yl)-6,7-dihydro-1H-imidazo[4,5-c]pyridin-5(4H)-yl)(5-(4-fluorophenyl)-1,3,4-oxadiazol-2-yl)methanone]	≤ 500 nM
CC(C)(O)c1nc(C(F)F)c(C(=O)N2CCc3[nH]cnc3[C@@H]2c2nc3cccc(Cl)c3o2)o1 [Example 424, (R)-(4-(7-chlorobenzo[d]oxazol-2-yl)-6,7-dihydro-1H-imidazo[4,5-c]pyridin-5(4H)-yl)(4-(difluoromethyl)-2-(2-hydroxypropan-2-yl)oxazol-5-yl)methanone]	≤ 500 nM
Cc1ccc2oc([C@@H]3c4nc[nH]c4CCN3C(=O)c3nnc(-c4ncccc4F)o3)nc2c1 [Example 653, (S)-(5-(3-fluoropyridin-2-yl)-1,3,4-oxadiazol-2-yl)(4-(5-methylbenzo[d]oxazol-2-yl)-6,7-dihydro-1H-imidazo[4,5-c]pyridin-5(4H)-yl)methanone]	≤ 500 nM
Cc1ccc2nc([C@@H]3c4nc[nH]c4CCN3C(=O)c3ocnc3C(F)(F)F)oc2c1 [Example 57, (S)-(4-(6-methylbenzo[d]oxazol-2-yl)-6,7-dihydro-1H-imidazo[4,5-c]pyridin-5(4H)-yl)(4-(trifluoromethyl)oxazol-5-yl)methanone]	≤ 500 nM
O=C(CC1CC1)N1CCc2[nH]cnc2[C@H]1c1nc2ccc(Br)cc2o1 [Example 3, (S)-1-(4-(6-bromobenzo[d]oxazol-2-yl)-6,7-dihydro-1H-imidazo[4,5-c]pyridin-5(4H)-yl)-2-cyclopropylethanone]	≤ 500 nM
O=C(c1oc(C2(O)CC2)nc1C(F)F)N1CCc2[nH]cnc2[C@H]1c1nc2ccc(F)cc2o1 [Example 237, (S)-(4-(difluoromethyl)-2-(1-hydroxycyclopropyl)oxazol-5-yl)(4-(6-fluorobenzo[d]oxazol-2-yl)-6,7-dihydro-1H-imidazo[4,5-c]pyridin-5(4H)-yl)methanone]	1000 to 5000 nM
Cc1ccc(C)c2oc([C@H]3c4nc[nH]c4CCN3C(=O)c3oc(C(C)(C)O)nc3C(F)F)nc12 [Example 660, (R)-(4-(difluoromethyl)-2-(2-hydroxypropan-2-yl)oxazol-5-yl)(4-(4,7-dimethylbenzo[d]oxazol-2-yl)-6,7-dihydro-1H-imidazo[4,5-c]pyridin-5(4H)-yl)methanone]	1000 to 5000 nM
Cc1cccc2oc([C@H]3c4nc[nH]c4CCN3C(=O)c3ncnn3C)nc12 [Example 902, (R)-(1-methyl-1H-1,2,4-triazol-5-yl)(4-(4-methylbenzo[d]oxazol-2-yl)-6,7-dihydro-1H-imidazo[4,5-c]pyridin-5(4H)-yl)methanone]	1000 to 5000 nM
CC(C)(O)c1nc(Cl)c(C(=O)N2CCc3[nH]cnc3[C@@H]2c2nc3cc(F)ccc3o2)o1 [Example 130, (R)-(4-chloro-2-(2-hydroxypropan-2-yl)oxazol-5-yl)(4-(5-fluorobenzo[d]oxazol-2-yl)-6,7-dihydro-1H-imidazo[4,5-c]pyridin-5(4H)-yl)methanone]	≥ 5000 nM
Cc1ccc2oc([C@@H]3c4nc[nH]c4CCN3C(=O)c3nnc(-c4ccc(F)cn4)o3)nc2c1 [Example 99, (S)-(5-(5-fluoropyridin-2-yl)-1,3,4-oxadiazol-2-yl)(4-(5-methylbenzo[d]oxazol-2-yl)-6,7-dihydro-1H-imidazo[4,5-c]pyridin-5(4H)-yl)methanone]	500 to 1000 nM
O=C(c1cnco1)N1CCc2[nH]cnc2[C@H]1c1nc2c(F)ccc(F)c2o1 [Example 483, (S)-(4-(4,7-difluorobenzo[d]oxazol-2-yl)-6,7-dihydro-1H-imidazo[4,5-c]pyridin-5(4H)-yl)(oxazol-5-yl)methanone]	500 to 1000 nM
O=C(c1nnc(-c2cnccn2)o1)N1CCc2[nH]cnc2[C@H]1c1nc2cc(F)ccc2o1 [Example 628, (S)-(4-(5-fluorobenzo[d]oxazol-2-yl)-6,7-dihydro-1H-imidazo[4,5-c]pyridin-5(4H)-yl)(5-(pyrazin-2-yl)-1,3,4-oxadiazol-2-yl)methanone]	1000 to 5000 nM

Same assay, conditions: A375 cells expressing R408W PAH; 24 hrs with compound, then 20 μM sepiapterin and 800 μM 13C9,15N-Phenylalanine for 4 hours; 13C-Tyrosine by LC-MS; average where tested multiple times

SMILES	AC50
O=C(CCc1nccs1)N1CCc2[nH]cnc2C1c1nc2ccc(F)cc2o1 (stereo not drawn) [listing 1 of 2 here]	≥ 5000 nM
O=C([C@H]1CC1(F)F)N1CCc2[nH]cnc2[C@H]1c1nc2cc(F)ccc2o1 (single isomer, unassigned)	1000 to 5000 nM
Cc1ccc2nc(C3c4nc[nH]c4CCN3C(=O)c3nnc(C(C)(C)O)o3)oc2c1 (stereo not drawn)	1000 to 5000 nM
COCCNc1ccc2c(C(=O)N3CCc4[nH]cnc4C3c3nc4cc(F)ccc4o3)cnn2c1 (stereo not drawn)	≥ 5000 nM
O=C(c1nnc(-c2ccncn2)o1)N1CCc2[nH]cnc2C1c1nc2cc(F)ccc2o1 (stereo not drawn)	1000 to 5000 nM
Cn1cnnc1C(=O)N1CCc2[nH]cnc2C1c1nc2ccc(F)cc2o1 (stereo not drawn)	≥ 5000 nM
O=C(CCc1nccs1)N1CCc2[nH]cnc2C1c1nc2ccc(F)cc2o1 (stereo not drawn) [listing 2 of 2 here]	1000 to 5000 nM
Cc1ccc2nc(C3c4nc[nH]c4CCN3C(=O)Cc3nncs3)oc2c1 (stereo not drawn)	1000 to 5000 nM
Cn1nc(-c2ccccn2)nc1C(=O)N1CCc2[nH]cnc2C1c1nc2cccc(F)c2o1 (stereo not drawn)	≥ 5000 nM
O=C(CCc1cnco1)N1CCc2[nH]cnc2C1c1nc2ccc(F)cc2o1 (stereo not drawn)	1000 to 5000 nM
